Results: PubChem BioAssay AID206 (DTP/NCI, 2004)
Values joined by “and” are separate entries in the source; they are usually repeats but may differ in a detail not shown here. Equal entries are not always repeated. Inconclusive results are not listed.

Tested on: nude mice, HT29 intrarenal xenograft, tumor weight T/C
Experiment: NCI In Vivo Anticancer Drug Screen. Data for tumor model HT29;CX-1 Human Adenocarcinoma (MER+) (intrarenal inoculation) in NU/NU Swiss (nude) mice
Settings: endpoint: mean tumor weight change, higher = larger tumour
How it was run: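 T/C = treated-group value ÷ vehicle-group value, using tumor size or survival.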

[1] = dose: 300.0 mg/kg/injection, schedule: Q04DX004 (sc), vehicle: suspension in saline
[2] = dose: 600.0 mg/kg/injection, schedule: Q04DX004 (sc), vehicle: suspension in saline
[3] = dose: 1200.0 mg/kg/injection, schedule: Q04DX004 (sc), vehicle: suspension in saline
[4] = dose: 100.0 mg/kg/injection, schedule: Q04DX004 (sc), vehicle: saline with Tween-80
[5] = dose: 200.0 mg/kg/injection, schedule: Q04DX004 (sc), vehicle: saline with Tween-80
[6] = dose: 800.0 mg/kg/injection, schedule: Q04DX004 (sc), vehicle: saline with Tween-80
[7] = dose: 150.0 mg/kg/injection, schedule: Q04DX004 (sc), vehicle: suspension in saline
[8] = dose: 2.0 mg/kg/injection, schedule: Q01DX010 (sc), vehicle: saline
[9] = dose: 4.0 mg/kg/injection, schedule: Q01DX010 (sc), vehicle: saline

SMILES: N=c1ccn2c(n1)OC1C(O)C(CO)OC12 (stereo not given)
- T/C (dose: 300.0 mg/kg/injection, schedule: Q04DX004 (sc), vehicle: saline): 50 % of control
- T/C [1]: 105 % of control
- T/C (dose: 400.0 mg/kg/injection, schedule: Q04DX004 (sc), vehicle: saline): 98 % of control
- T/C (dose: 600.0 mg/kg/injection, schedule: Q04DX004 (sc), vehicle: saline): 60 % of control
- T/C [2]: 66 % of control
- T/C (dose: 800.0 mg/kg/injection, schedule: Q04DX004 (sc), vehicle: saline): 31 % of control
- T/C (dose: 1200.0 mg/kg/injection, schedule: Q04DX004 (sc), vehicle: saline): 42 % of control
- T/C [3]: 38 % of control
- T/C (dose: 1600.0 mg/kg/injection, schedule: Q04DX004 (sc), vehicle: saline): 36 % of control
- T/C (dose: 2400.0 mg/kg/injection, schedule: Q04DX004 (sc), vehicle: suspension in saline): 42 % of control

SMILES: NC(=O)c1ncn(C2OC(CO)C(O)C2O)n1 (stereo not given)
- T/C (dose: 225.0 mg/kg/injection, schedule: Q04DX004 (sc), vehicle: saline): 93 % of control
- T/C (dose: 450.0 mg/kg/injection, schedule: Q04DX004 (sc), vehicle: saline): 75 % of control
- T/C (dose: 900.0 mg/kg/injection, schedule: Q04DX004 (sc), vehicle: saline): 61 % of control

SMILES: COCCCNC1=C(C#N)C(=O)NC(c2cccc([N+](=O)[O-])c2)S1 (stereo not given)
- T/C [4]: 91 % of control
- T/C [5]: 165 % of control
- T/C [6]: 164 % of control

SMILES: N=C(N)SCc1cccc2c(=O)cc(-c3ccccc3)oc12
- T/C [7]: 110 % of control
- T/C [1]: 113 % of control
- T/C [2]: 106 % of control
- T/C [3]: 69 % of control

SMILES: Cc1cc(NS(=O)(=O)c2ccc(N=Nc3cc(N=Nc4ccc(S(=O)(=O)Nc5cc(C)nc(C)n5)cc4)c4c(NC(=O)C(Cl)Cl)cccc4c3OC(=O)C(Cl)Cl)cc2)nc(C)n1 (tested in a mixture with another compound)
- T/C [7]: 204 % of control
- T/C [3]: 72 % of control

SMILES: OCC1OC(n2cnc3c2NC=NC[C@H]3O)CC1O (stereo not given in full)
- T/C (dose: 1.0 mg/kg/injection, schedule: Q01DX010 (sc), vehicle: water): 168 % of control
- T/C (dose: 2.0 mg/kg/injection, schedule: Q01DX010 (sc), vehicle: water): 176 % of control

SMILES: [Cl][Pt+2][Cl].[NH-]CC1(C[NH-])CCC1
- T/C (dose: 12.5 mg/kg/injection, schedule: Q04DX004 (sc), vehicle: suspension in saline): 87 % of control
- T/C (dose: 25.0 mg/kg/injection, schedule: Q04DX004 (sc), vehicle: suspension in saline): 61 % of control

SMILES: C=C(C)C(=O)OC1C/C(CO)=C\C(O)C/C(C)=C/C2OC(=O)C(=C)C21 (stereo not given)
- T/C (dose: 20.0 mg/kg/injection, schedule: Q04DX004 (sc), vehicle: saline + alcohol): 100 % of control
- T/C (dose: 40.0 mg/kg/injection, schedule: Q04DX004 (sc), vehicle: saline + alcohol): 83 % of control
- T/C (dose: 80.0 mg/kg/injection, schedule: Q04DX004 (sc), vehicle: saline + alcohol): 70 % of control

SMILES: COc1cccc2c1C(=O)c1c(O)c3c(c(O)c1C2=O)C[C@@](O)(C(=O)CO)C[C@@H]3OC1CC(N)C(O)C(C)O1 (stereo not given in full)
- T/C (dose: 0.25 mg/kg/injection, schedule: Q01DX010 (ip), vehicle: water): -27 % of control
- T/C (dose: 0.5 mg/kg/injection, schedule: Q01DX010 (sc), vehicle: saline): 62 % of control
- T/C (dose: 1.0 mg/kg/injection, schedule: Q01DX010 (sc), vehicle: saline): 30 % of control and 32 % of control
- T/C (dose: 1.5 mg/kg/injection, schedule: Q01DX010 (sc), vehicle: saline): 96 % of control
- T/C (dose: 2.0 mg/kg/injection, schedule: Q01DX010 (ip), vehicle: water): -20 % of control
- T/C [8]: 15 % of control and 29 % of control
- T/C (dose: 3.0 mg/kg/injection, schedule: Q01DX010 (sc), vehicle: saline): 109 % of control
- T/C [9]: 4 % of control and 27 % of control
- T/C (dose: 6.0 mg/kg/injection, schedule: Q01DX010 (sc), vehicle: saline): 102 % of control
- T/C (dose: 7.5 mg/kg/injection, schedule: Q04DX004 (sc), vehicle: saline): 62 % of control

SMILES: COc1cccc2c1C(=O)c1c(O)c3c(c(O)c1C2=O)CC(O)(C(=O)CO)CC3OC1CC(N)C(O)C(C)O1 (stereo not given)
- T/C (dose: 48.0 mg/kg/injection, schedule: Q01DX010 (sc), vehicle: saline): 90 % of control

SMILES: O=C1[C@H]2CCC[C@H]2[C@H]2CCC[C@@H]12
- T/C [4]: 67 % of control
- T/C [5]: 44 % of control
- T/C (dose: 400.0 mg/kg/injection, schedule: Q04DX004 (sc), vehicle: saline with Tween-80): 83 % of control
- T/C [6]: 82 % of control

SMILES: COc1ccc(C(=O)C(CN(C)C)CN(C)C)cc1
- T/C (dose: 12.5 mg/kg/injection, schedule: Q04DX004 (sc), vehicle: saline): 100 % of control
- T/C (dose: 25.0 mg/kg/injection, schedule: Q04DX004 (sc), vehicle: saline): 38 % of control

SMILES: CCOC(=O)Nc1cc2c(c(N)n1)N=C(CN(C)c1ccccc1)CN2
- T/C (dose: 6.0 mg/kg/injection, schedule: Q01DX010 (sc), vehicle: Klucel (hydroxypropylcellulose) (HPC)): 35 % of control
- T/C (dose: 12.0 mg/kg/injection, schedule: Q01DX010 (sc), vehicle: Klucel (hydroxypropylcellulose) (HPC)): 45 % of control
- T/C (dose: 24.0 mg/kg/injection, schedule: Q01DX010 (sc), vehicle: Klucel (hydroxypropylcellulose) (HPC)): 53 % of control

SMILES: CCOC(=O)C(CC(C)C)NC(=O)C(N)Cc1ccc(N(CCCl)CCCl)cc1 (stereo not given)
- T/C (dose: 7.5 mg/kg/injection, schedule: Q04DX004 (sc), vehicle: water): 81 % of control
- T/C (dose: 15.0 mg/kg/injection, schedule: Q04DX004 (sc), vehicle: water): 105 % of control and 118 % of control
- T/C (dose: 30.0 mg/kg/injection, schedule: Q04DX004 (sc), vehicle: water): 82 % of control and 86 % of control
- T/C (dose: 60.0 mg/kg/injection, schedule: Q04DX004 (sc), vehicle: water): 7 % of control

SMILES: CN1C(=O)C(=Cc2ccc(O)cc2)C(=O)N(C)C1=O
- T/C (dose: 150.0 mg/kg/injection, schedule: Q04DX004 (sc), vehicle: saline with Tween-80): 116 % of control
- T/C (dose: 300.0 mg/kg/injection, schedule: Q04DX004 (sc), vehicle: saline with Tween-80): 101 % of control
- T/C (dose: 600.0 mg/kg/injection, schedule: Q04DX004 (sc), vehicle: saline with Tween-80): 99 % of control
- T/C (dose: 1200.0 mg/kg/injection, schedule: Q04DX004 (sc), vehicle: saline with Tween-80): 74 % of control

SMILES: COC12C(COC(N)=O)C3=C(C(=O)C(C)=C(N)C3=O)N1CC1C2N1C (stereo not given)
- T/C [8]: 114 % of control
- T/C [9]: 8 % of control and 12 % of control

SMILES: CCc1c(CC(=O)O)c2cc(C)ccc2n1Cc1ccc(Cl)cc1
- T/C (dose: 100.0 mg/kg/injection, schedule: Q04DX004 (sc), vehicle: Klucel (hydroxypropylcellulose) (HPC)): 77 % of control
- T/C (dose: 200.0 mg/kg/injection, schedule: Q04DX004 (sc), vehicle: Klucel (hydroxypropylcellulose) (HPC)): 74 % of control
- T/C (dose: 400.0 mg/kg/injection, schedule: Q04DX004 (sc), vehicle: Klucel (hydroxypropylcellulose) (HPC)): 86 % of control
- T/C (dose: 800.0 mg/kg/injection, schedule: Q04DX004 (sc), vehicle: Klucel (hydroxypropylcellulose) (HPC)): 97 % of control

SMILES: COc1cccc2c1C(=O)c1c(O)c3c(c(O)c1C2=O)CC(O)(/C(C)=N/NC(=O)CCC(=O)N/N=C(\C)C1(O)Cc2c(O)c4c(c(O)c2C(OC2CC(N)C(O)C(C)O2)C1)C(=O)c1c(OC)cccc1C4=O)CC3OC1CC(N)C(O)C(C)O1 (stereo not given)
- T/C (dose: 6.25 mg/kg/injection, schedule: Q01DX010 (sc), vehicle: water): 114 % of control
- T/C (dose: 12.5 mg/kg/injection, schedule: Q01DX010 (sc), vehicle: water): 47 % of control
- T/C (dose: 15.63 mg/kg/injection, schedule: Q04DX004 (sc), vehicle: water): 64 % of control
- T/C (dose: 25.0 mg/kg/injection, schedule: Q01DX010 (sc), vehicle: water): 46 % of control
- T/C (dose: 31.25 mg/kg/injection, schedule: Q04DX004 (sc), vehicle: water): 3 % of control
- T/C (dose: 62.5 mg/kg/injection, schedule: Q04DX004 (sc), vehicle: water): 120 % of control

SMILES: CC(=O)OCC1OC(OC(C)=O)C(NC(=O)N(CCCl)N=O)C(OC(C)=O)C1OC(C)=O (stereo not given)
- T/C (dose: 3.0 mg/kg/injection, schedule: Q04DX004 (sc), vehicle: Klucel (hydroxypropylcellulose) (HPC)): 30 % of control
- T/C (dose: 6.0 mg/kg/injection, schedule: Q04DX004 (sc), vehicle: Klucel (hydroxypropylcellulose) (HPC)): 40 % of control
- T/C (dose: 12.0 mg/kg/injection, schedule: Q04DX004 (sc), vehicle: Klucel (hydroxypropylcellulose) (HPC)): 60 % of control
- T/C (dose: 24.0 mg/kg/injection, schedule: Q04DX004 (sc), vehicle: Klucel (hydroxypropylcellulose) (HPC)): 96 % of control

SMILES: Cc1ncc(CNC(=O)N(CCCl)N=O)c(N)n1
- T/C (dose: 9.38 mg/kg/injection, schedule: Q04DX004 (sc), vehicle: saline): 55 % of control
- T/C (dose: 18.75 mg/kg/injection, schedule: Q04DX004 (sc), vehicle: saline): 39 % of control
